Measurements reported in patent US20250230193A1, “CYCLIC COMPOUND HAVING SELECTIVE KRAS INHIBITORY EFFECT ON HRAS AND NRAS” (CHUGAI SEIYAKU KABUSHIKI KAISHA, priority 2022, published 2025).

Assays:
[1] = target: GDP-bound NRAS wild-type protein (Homo sapiens, UniProt P01111); assay: Binding to NRAS by surface plasmon resonance (SPR), Single Cycle Kinetics; details: KD ratio, GDP-bound NRAS wild-type vs GDP-bound KRAS wild-type, SPR
[2] = target: GDP-bound HRAS wild-type protein (Homo sapiens, UniProt P01112); assay: Binding to HRAS by surface plasmon resonance (SPR), Single Cycle Kinetics; details: KD ratio, GDP-bound HRAS wild-type vs GDP-bound KRAS wild-type, SPR
Sequence of GDP-bound HRAS wild-type protein (P01112 whole entry): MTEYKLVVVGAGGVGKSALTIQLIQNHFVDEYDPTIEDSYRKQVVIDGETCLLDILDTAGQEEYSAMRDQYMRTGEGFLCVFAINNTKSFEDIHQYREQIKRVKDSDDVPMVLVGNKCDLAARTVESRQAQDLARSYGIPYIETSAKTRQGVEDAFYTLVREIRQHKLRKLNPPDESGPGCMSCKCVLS

Sequence of GDP-bound NRAS wild-type protein (P01111 whole entry): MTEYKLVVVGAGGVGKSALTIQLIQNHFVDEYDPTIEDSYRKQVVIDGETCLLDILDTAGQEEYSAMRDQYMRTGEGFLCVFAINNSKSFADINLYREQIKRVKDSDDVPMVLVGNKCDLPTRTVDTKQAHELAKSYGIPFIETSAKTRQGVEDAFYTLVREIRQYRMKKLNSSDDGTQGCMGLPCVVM

Row | SMILES | NRAS/KRAS (ratio of KD value for NRAS to KD value for KRAS) [1] | HRAS/KRAS (ratio of KD value for HRAS to KD value for KRAS) [2]
1 | CCC[C@H]1C(=O)N[C@@H]([C@@H](C)CC)C(=O)N(C)CC(=O)N(C)[C@H]2C/C=C\CCN(C2=O)[C@@H](Cc2ccc(C(F)(F)F)cc2)C(=O)N(C)CC(=O)N[C@@H](CCc2cc(F)c(C(F)(F)F)c(F)c2)C(=O)N(CC)CC(=O)NC2(CC(C)(C)C2)C(=O)N(C)[C@@H](C2CCCC2)C(=O)N(C)[C@H](C(=O)N(C)C)CC(=O)N1C [PP1777] | A (a compound having 10 or more and less than 20 is denoted as A) | B (a compound having 3 or more and less than 10 is denoted as B)
2 | CCO[C@@H]1C[C@H]2C(=O)N(C)C3(CCC3)C(=O)N(C)[C@@H](C3CCCC3)C(=O)N(C)[C@H](C(=O)N(C)C)CC(=O)N(C)[C@@H](CC)C(=O)N[C@@H]([C@@H](C)CC)C(=O)N(C)CC(=O)N(C)[C@H]3C/C=C\CCN(C3=O)[C@@H](Cc3ccc(C(F)(F)F)cc3)C(=O)N(C)CC(=O)N[C@@H](CCc3cc(F)c(C(F)(F)F)c(F)c3)C(=O)N2C1 [PP1779] | A (a compound having 10 or more and less than 20 is denoted as A) | B (a compound having 3 or more and less than 10 is denoted as B)
3 | CC[C@H](C)[C@@H]1NC(=O)[C@H](CC)N(C)C(=O)C[C@@H](C(=O)N(C)C)N(C)C(=O)[C@H](C2CCCC2)N(C)C(=O)C2(CCC2)N(C)C(=O)[C@@H]2CCCN2C(=O)[C@H](CCc2cc(F)c(C(F)(F)F)c(F)c2)NC(=O)CN(C)C(=O)[C@H](Cc2ccc(C(F)(F)F)cc2)N2CC/C=C\C[C@@H](C2=O)N(C)C(=O)CN(C)C1=O [PP1780] | A (a compound having 10 or more and less than 20 is denoted as A) | A (a compound having 10 or more and less than 20 is denoted as A)
4 | CCO[C@@H]1C[C@H]2C(=O)N(C)C3(CCC3)C(=O)N(C)[C@@H](C3CCCC3)C(=O)N(C)[C@H](C(=O)N(C)C)CC(=O)N(C)[C@@H](CC)C(=O)N[C@@H]([C@@H](C)CC)C(=O)N(C)CC(=O)N(C)[C@H]3C/C=C\CCN(C3=O)[C@@H](Cc3ccc(C)cc3)C(=O)N(C)CC(=O)N[C@@H](CCc3cc(F)c(C(F)(F)F)c(F)c3)C(=O)N2C1 [PP1781] | A (a compound having 10 or more and less than 20 is denoted as A) | B (a compound having 3 or more and less than 10 is denoted as B)
5 | CC[C@H](C)[C@@H]1NC(=O)[C@H](CC)N(C)C(=O)C[C@@H](C(=O)N(C)C)N(C)C(=O)[C@H](C2CCCC2)N(C)C(=O)C2(CCC2)N(C)C(=O)[C@@H]2CCCN2C(=O)[C@H](CCc2cc(F)c(C(F)(F)F)c(F)c2)NC(=O)CN(C)C(=O)[C@H](Cc2ccc(C)cc2)N2CC/C=C\C[C@@H](C2=O)N(C)C(=O)CN(C)C1=O [PP1782] | A (a compound having 10 or more and less than 20 is denoted as A) | B (a compound having 3 or more and less than 10 is denoted as B)
6 | CCO[C@@H]1C[C@H]2C(=O)N(C)C3(CCC3)C(=O)N(C)[C@@H](C3CCCC3)C(=O)N(C)[C@H](C(=O)N(C)C)CC(=O)N(C)[C@@H](C3CC3)C(=O)N[C@@H]([C@@H](C)CC)C(=O)N(C)CC(=O)N(C)[C@H]3C/C=C\CCN(C3=O)[C@@H](Cc3ccc(C)cc3)C(=O)N(C)CC(=O)N[C@@H](CCc3cc(F)c(C(F)(F)F)c(F)c3)C(=O)N2C1 [PP1783] | A (a compound having 10 or more and less than 20 is denoted as A) | B (a compound having 3 or more and less than 10 is denoted as B)
7 | CC[C@H](C)[C@@H]1NC(=O)[C@H](C2CC2)N(C)C(=O)C[C@@H](C(=O)N(C)C)N(C)C(=O)[C@H](C2CCCC2)N(C)C(=O)C2(CCC2)N(C)C(=O)[C@@H]2CCCN2C(=O)[C@H](CCc2cc(F)c(C(F)(F)F)c(F)c2)NC(=O)CN(C)C(=O)[C@H](Cc2ccc(C)cc2)N2CC/C=C\C[C@@H](C2=O)N(C)C(=O)CN(C)C1=O [PP1784] | A (a compound having 10 or more and less than 20 is denoted as A) | B (a compound having 3 or more and less than 10 is denoted as B)
